This note sets out measurements from PubChem BioAssay (NCI).

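Following 48 hours of exposure in 96-well plates, responses at five concentrations were used to interpolate endpoints linearly. Abbreviation: GI50, concentration required for 50% inhibition of growth. Definition used: TGI = concentration required for complete inhibition of growth.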

Test systems include K-562 leukemia; TK-10 renal; M14 melanoma; U251 CNS; HCT-15 colon; SNB-19 CNS; HT29 colon; OVCAR-4 ovarian; RPMI-8226 leukemia; ACHN renal.
Holding throughout (experiment): NCI tumour cell line growth inhibition, 48 h

With `COc1cc2c(Oc3ccc4[nH]c(C)cc4c3F)ccnc2cc1OCC1(N)CC1`, the GI50 in the experiment on K-562 leukemia is 416 nM; with TK-10 renal, 7.89 µM; with M14 melanoma, 1020 nM; with U251 CNS, 0.674 µM; in the experiment with HCT-15 colon, 854 nM; in the experiment with SNB-19 CNS, 1.64 µM. The GI50 in the experiment on HT29 colon was 0.874 µM; with OVCAR-4 ovarian it was 4220 nM; in the experiment with RPMI-8226 leukemia, 2100 nM; with ACHN renal, 2050 nM. Besides, the TGI was 12.3 µM in the experiment with K-562 leukemia; 26.2 µM in the experiment on TK-10 renal; 2.53 µM in the experiment with M14 melanoma; 7.15 µM in the experiment on U251 CNS; 13.5 µM in the experiment on HCT-15 colon; 28.1 µM in the experiment on SNB-19 CNS. Further, the TGI in the experiment with HT29 colon is 3.3 µM; in the experiment on OVCAR-4 ovarian, over 100 µM; in the experiment with RPMI-8226 leukemia, 5.95 µM; in the experiment on ACHN renal it was 12.5 µM.

Take `O=C1NC2CCC(C2)C1c1ccccc1` (stereo not drawn): the TGI in the experiment on K-562 leukemia, with TK-10 renal, in the experiment with M14 melanoma, with U251 CNS, with SNB-19 CNS and with HT29 colon was over 100 µM each time. The TGI with OVCAR-4 ovarian, with RPMI-8226 leukemia and in the experiment with ACHN renal was over 100 µM in each case.

Consider `COc1ccc(C(=O)OC2C=COC(C)C2OC(=O)c2ccc(OC)cc2)cc1` (stereo not drawn), for which the TGI is 63.9 µM with K-562 leukemia; over 100 µM with TK-10 renal; 35.9 µM in the experiment on M14 melanoma; 97.9 µM in the experiment with U251 CNS; 33 µM in the experiment with HCT-15 colon; over 100 µM in the experiment with SNB-19 CNS. The TGI in the experiment on HT29 colon was 62.4 µM; with OVCAR-4 ovarian, over 63.2 µM; in the experiment on RPMI-8226 leukemia, 47.2 µM; in the experiment with ACHN renal, over 100 µM.

As for `NC1CCCCC1N.O=S(=O)([O-])CCCN1CCOCC1.O=S(=O)([O-])CCCN1CCOCC1.[Pt+4]`, the GI50 was 7290 nM in the experiment with K-562 leukemia; over 100 µM in the experiment on TK-10 renal; 14400 nM in the experiment with M14 melanoma; 13.7 µM in the experiment on U251 CNS; 8400 nM in the experiment on HCT-15 colon; 25.7 µM in the experiment on SNB-19 CNS. Moreover, the GI50 in the experiment on HT29 colon was 12.8 µM; in the experiment with OVCAR-4 ovarian it was over 29700 nM; in the experiment on RPMI-8226 leukemia, 1050 nM; with ACHN renal, 8170 nM. Further, the TGI was 30.5 µM with K-562 leukemia; over 100 µM in the experiment on TK-10 renal; over 100 µM in the experiment with M14 melanoma; over 100 µM in the experiment on U251 CNS; over 56.6 µM with HCT-15 colon; over 100 µM in the experiment on SNB-19 CNS. The TGI in the experiment on HT29 colon is over 100 µM; in the experiment with OVCAR-4 ovarian it was over 100 µM; in the experiment with RPMI-8226 leukemia, over 51.4 µM; in the experiment on ACHN renal, over 100 µM.

As for `CN(C)CC/C(=N\Nc1ccccc1)c1ccccc1`, the TGI was 7.54 µM in the experiment with K-562 leukemia; 41.2 µM with TK-10 renal; 4.73 µM in the experiment on M14 melanoma; over 100 µM with U251 CNS; 27.6 µM with HCT-15 colon; over 100 µM with SNB-19 CNS. In addition, the results for the TGI with HT29 colon, in the experiment with OVCAR-4 ovarian and with RPMI-8226 leukemia were 10 µM, 32.4 µM and over 100 µM, respectively.

As for `O=C(Nc1ccc(F)cc1)C(=O)C(C1OC(=O)c2ccccc21)[N+](=O)[O-]` (stereo not drawn), the TGI with K-562 leukemia, in the experiment with TK-10 renal, with M14 melanoma, with U251 CNS, in the experiment on HCT-15 colon and with SNB-19 CNS was over 100 µM each time. Also, the TGI in the experiment with HT29 colon, with OVCAR-4 ovarian, with RPMI-8226 leukemia and in the experiment with ACHN renal was over 100 µM throughout.

`O=c1[nH]ccc2nc(N3CCC(O)CC3)nc(Nc3cccc(C(F)(F)F)c3)c12`: the GI50 in the experiment with K-562 leukemia was 3140 nM; with TK-10 renal it was 5.98 µM; in the experiment with M14 melanoma it was 1550 nM; in the experiment on U251 CNS it was 6.15 µM; in the experiment on HCT-15 colon it was 543 nM; in the experiment with SNB-19 CNS it was 18.1 µM. Also, the GI50 in the experiment with HT29 colon is 3.88 µM; in the experiment on OVCAR-4 ovarian, 1730 nM; in the experiment with RPMI-8226 leukemia, 2950 nM; with ACHN renal, 702 nM. The TGI in the experiment on K-562 leukemia was over 100 µM; in the experiment on TK-10 renal, 44.9 µM; in the experiment on M14 melanoma, 8.23 µM; in the experiment with U251 CNS it was over 100 µM; with HCT-15 colon it was 31.6 µM; in the experiment with SNB-19 CNS, over 100 µM. In addition, the TGI is 96.3 µM with HT29 colon, 36.4 µM in the experiment on OVCAR-4 ovarian, 92 µM in the experiment with RPMI-8226 leukemia and 84.7 µM with ACHN renal.

Regarding `COc1cccc(-c2nc3sccn3c2-c2ccnc(NCCNS(=O)(=O)c3ccccc3)c2)c1`, the GI50 in the experiment on K-562 leukemia was 1460 nM; in the experiment on TK-10 renal, 3.58 µM; in the experiment on M14 melanoma, 2840 nM; with U251 CNS it was 3.9 µM; with HCT-15 colon, 2550 nM; in the experiment with SNB-19 CNS, 5.92 µM. Also, the GI50 in the experiment with HT29 colon is 2.37 µM; in the experiment with OVCAR-4 ovarian, 2090 nM; in the experiment with RPMI-8226 leukemia, 1050 nM; in the experiment with ACHN renal, 2220 nM. The TGI in the experiment with K-562 leukemia was over 100 µM; with TK-10 renal, 57.2 µM; in the experiment on M14 melanoma, over 100 µM; with U251 CNS it was over 100 µM; in the experiment with HCT-15 colon it was over 100 µM; with SNB-19 CNS, over 100 µM. For the same compound, the TGI with HT29 colon was 34.3 µM; in the experiment on OVCAR-4 ovarian it was over 100 µM; with RPMI-8226 leukemia it was 3.65 µM; in the experiment with ACHN renal it was over 100 µM.

`Cc1cc(C)nc(NS(=O)(=O)c2ccc(Nc3c4ccc(Cl)cc4nc4c(C(=O)Nc5ccc(S(=O)(=O)N=C(N)N)cc5)cccc34)cc2)n1`: the TGI in the experiment with K-562 leukemia, in the experiment on TK-10 renal, with M14 melanoma, with U251 CNS, in the experiment with HCT-15 colon and in the experiment with SNB-19 CNS was over 100 µM throughout. For the same compound, the TGI in the experiment with HT29 colon, in the experiment with OVCAR-4 ovarian, with RPMI-8226 leukemia and in the experiment on ACHN renal was over 100 µM throughout.

Take `COC(=O)C12C3C4C5C3(C#N)C1C5(C(=O)OC)C42C(=O)N(C(C)C)C(C)C` (stereo not drawn): the TGI was over 73.8 µM with K-562 leukemia; over 100 µM with TK-10 renal; over 100 µM in the experiment with M14 melanoma; over 100 µM with U251 CNS; over 60.4 µM with HCT-15 colon; over 100 µM with SNB-19 CNS. For the same compound, the TGI with HT29 colon was over 100 µM; in the experiment on OVCAR-4 ovarian, over 100 µM; in the experiment with RPMI-8226 leukemia it was over 69.3 µM; with ACHN renal it was over 100 µM.
